Reference: patent US10849901B2, “Arf6 inhibitors and methods of synthesis and use thereof” (Navigen, Inc., priority 2014, dated 2020)
Read-outs that look alike come from different tables or passages of the source.

Key:
[1] = system: oxygen-induced retinopathy; test: Oxygen-induced retinopathy (OIR) in mice; type: in vivo; conditions: 5 μg intraocular Days 12 and 15, measured Day 17
Method: In the experiment, mice pups were placed in a 75% oxygen environment from Days 5-12. The mice were returned to a normal oxygen environment on Day 13. The test compounds were administered (5 μg) by intraocular injection on Days 12 and 15, and the area of neovascularization was measured on Day 17. Compound 38 was compared with SU4312 in oxygen-induced retinopathy (OIR) in mice (see FIG. 11). […]

[2] = system: collagen-induced arthritis; test: Mouse model of collagen-induced arthritis; type: in vivo; conditions: mice, 14 days; Compound 4 10, 30, 60 mg/kg BID; Enbrel 10 mg/kg QD
Method: In the experiment, mice were immunized with collagen on Days 1 and 21, and randomized to treatment groups on or around Day 28, then subject to fourteen days of treatment with a test compound. Vehicle (●), Compound 4 at 10 mg/kg (▴), Compound 4 at 30 mg/kg (▾), Compound 4 at 60 mg/kg (♦), or Enbrel (▪; 10 mg/kg) was given. Compound 4 was given twice daily (BID); Enbrel was given once daily (QD); and vehicle was given twice daily (BID).

Arf6 = Arf6 (Homo sapiens (Human), UniProt P62330); test: Fluorometric assay for Arf6 nucleotide exchange catalyzed by ARNO Sec7 domain (GTP-BODIPY FL); type: biochemical
[3] = system: VEGF-induced retinal permeability; test: VEGF-induced retinal permeability in mice (Evans blue dye); type: in vivo
Method: (§1) In the experiment, VEGF (50 ng) and either Compound 38 or 65 (500 ng) or NAV-3745 (500 ng) were given to mice in a single intraocular injection. Evans blue dye (EBD) was given via IV approximately 6 hours after the injection, and the retinas were harvested after an additional 2 hours. Retinal permeability was measured on Day 2 after an overnight extraction of EBD in formamide, at OD 620-740 nm.
as §1, with “the test compound” for “either Compound 38 or 65 (500 ng) or NAV-3745 (500 ng)”, “injection. Avastin was given at a dose of 20 μg, Compound 38 at either 50 ng or 500 ng (as noted in FIG. 7), and SU4312 at 5 μg. As with the previous experiment,” for “injection.”

[4] = system: LPS-induced acute lung injury; test: LPS-induced acute lung injury in mice (BALF analysis); type: in vivo; conditions: 24 hours after LPS, Compound 38 60 mg/kg, dexamethasone 5 mg/kg
Method: In the experiment, LPS (5 mg/kg) was given by intra-tracheal instillation. Dexamethasone (5 mg/kg) was given as a positive control 2 hours after the LPS. Bronchoalveolar fluid (BALF) was analyzed for cell count and protein 24 hours after the LPS.

[5] = system: VEGF-induced retinal permeability; test: VEGF-induced retinal permeability in rats (Evans blue dye); type: in vivo; conditions: rat, not told, ip, 60 mg/kg
Method: In the experiment, VEGF (500 ng) and Avastin (200 μg) were given to rats in a single intraocular injection on Day 1. Compound 38 (60 mg/kg) was administered by IP injection 1 hour prior to VEGF on Day 1. Rats were given Evans blue dye (EBD) via IV infusion on Day 2, and the retinas were harvested after an additional 1.5 hours. The retinas were dissected and incubated overnight in formamide. Vascular leak was calculated on Day 3.

Sequence of Arf6 (P62330 14-175): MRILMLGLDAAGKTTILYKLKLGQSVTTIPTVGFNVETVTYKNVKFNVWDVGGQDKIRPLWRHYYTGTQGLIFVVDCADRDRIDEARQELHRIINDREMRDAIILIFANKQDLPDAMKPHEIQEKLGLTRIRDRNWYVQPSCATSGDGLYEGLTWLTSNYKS

Molecule | area of neovascularization [1] | inflammation as measured by the arthritic index [2] | VEGF-induced retinal permeability ([3]; mouse, not told) | also measured
O=c1cc(-c2cccc(Oc3ccccc3)c2)[nH]c2c(-c3ccc(Cl)c(Cl)c3)c(C(F)(F)F)nn12 [Compound 4] | reduced the area of neovascularization | reduced inflammation | – | IC50 (Arf6; 20 nM Arf6 assay, read-out: IC50 (μM) 20 nM Arf6): 0.52 µM; IC50 (Arf6; 200 nM Arf6 assay, read-out: IC50 (μM) 200 nM Arf6): 0.46 µM
COc1ccc(-c2c(Cc3ccccc3)nn3c(=O)cc(C)[nH]c23)cc1 [NAV-3745, reference compound] | – | – | – | VEGF-induced retinal permeability ([3]; mice, 500 ng single intraocular injection with VEGF 50 ng (FIG. 6)): no effect
C[C@@H]1C[C@H]2[C@@H]3CCC4=CC(=O)C=C[C@]4(C)[C@@]3(F)[C@@H](O)C[C@]2(C)[C@@]1(O)C(=O)CO [dexamethasone, Dexamethasone, reference compound] | – | – | – | number of cells in the lung fluid (BALF) [4]: reduced the number of cells; protein concentration in the lung fluid (BALF) [4]: reduced
Avastin | – | – | reduced VEGF-induced retinal permeability | VEGF-induced retinal permeability [5]: reduced VEGF-induced retinal permeability
Enbrel | – | reduced inflammation | – | –
SU4312 [reference compound] | reduced the area of neovascularization | – | little effect | –
